From US20220389057A1, “ENDOCYTOSIS ROUTING SEQUENCE PEPTIDE FOR CELL DELIVERY SYSTEMS” (SZEGEDI TUDOMÁNYEGYETEM, priority 2019, published 2022)
Like-named read-outs stand apart in the source and are kept apart here.

Experiment: Isothermal titration calorimetry (ITC), binding to ganglioside GM1
Settings: Table 1, pH 7.2, 35° C.
Procedure: Isothermal calorimetric titrations (ITC) were performed with a MicroCal VP-ITC microcalorimeter in pH 7.2 phosphate buffer solution. In individual titrations, 15 μL GM1:DPC 1:5 containing solution was injected from the computer-controlled […] microsyringe at intervals of 300 s into the ligand solution, dissolved in the same buffer as the GM1. All measurements were carried out at 35° C. The ligands concentration in the cell was 15 μM, and the concentration of GM1 in the syringe was 300 μM. Control experiments were performed by injecting GM1 into the cell containing buffer but no ligands Experiments were repeated twice. The experimental data were fitted to the one binding site or two independent sites model (adjustable parameters: ΔHb1, Kd1, n1 and ΔHb2, Kd2, n2) using a nonlinear least-squares procedure. Errors were calculated by jackknife resampling.
Binding of Trp-Tyr-Lys-Tyr-Trp (WYKYW) and analogues to various ganglioside derivatives was tested as described under “Isothermal Titration calorimetry” to explore the specificity of the interaction between WYKYW and GM1. Affinity data for binding between WYKYW and various ganglioside derivatives (FIG. 1), and for binding between various mutated sequences of WYKYW and GM1 (Table 1) were obtained by Isothermal Titration calorimetry as described in Example 1 (General methods).

[1] = first binding step, read-out: KD1/nM
[2] = second binding step, read-out: KD2/nM

Row | Kd [1] | KD1/nM (first binding step) | Compound | Kd [2]
1 | 3240 nM |  | NCCCC[C@H](NC(=O)[C@H](Cc1ccc(O)cc1)NC(=O)[C@@H](N)Cc1c[nH]c2ccccc12)C(=O)N[C@H](Cc1ccc(O)cc1)C(=O)N[C@@H](Cc1c[nH]c2ccccc12)C(N)=O [WYKyW] | 
2 | 4520 nM |  | NCCCC[C@@H](NC(=O)[C@H](Cc1ccc(O)cc1)NC(=O)[C@@H](N)Cc1c[nH]c2ccccc12)C(=O)N[C@@H](Cc1ccc(O)cc1)C(=O)N[C@@H](Cc1c[nH]c2ccccc12)C(N)=O [WYkYW] | 
3 | 892 nM |  | NCCCC[C@H](NC(=O)[C@@H](Cc1ccc(O)cc1)NC(=O)[C@@H](N)Cc1c[nH]c2ccccc12)C(=O)N[C@@H](Cc1ccc(O)cc1)C(=O)N[C@@H](Cc1c[nH]c2ccccc12)C(N)=O [WyKYW] | 
4 | 881 nM |  | NCCCC[C@H](NC(=O)[C@H](Cc1ccc(O)cc1)NC(=O)[C@H](N)Cc1c[nH]c2ccccc12)C(=O)N[C@@H](Cc1ccc(O)cc1)C(=O)N[C@@H](Cc1c[nH]c2ccccc12)C(N)=O [wYKYW] | 
5 | 10500 nM |  | WYAYW [Ala point mutation of WYKYW] | 
6 | 1690 nM |  | WYKAW [Ala point mutation of WYKYW] | 
7 | 1060 nM |  | WYKYA [Ala point mutation of WYKYW] | 

Further lines, the compound ahead of its results:

Row | Compound | Kd [1] | KD1/nM (first binding step) | Kd [2]
8 | NCCCC[C@H](NC(=O)[C@H](Cc1ccc(O)cc1)NC(=O)[C@@H](N)Cc1c[nH]c2ccccc12)C(=O)N[C@@H](Cc1ccc(O)cc1)C(=O)N[C@H](Cc1c[nH]c2ccccc12)C(N)=O [WYKYw] | 3930 nM |  | 
9 | AYKYW [Ala point mutation of WYKYW] |  | not fittable | 
10 | Trp-Tyr-Lys-β^3-homo-Tyr-Trp [WYKbYW] | 40 nM |  | 1200 nM
11 | Trp-β^3-homo-Tyr-Lys-Tyr-Trp [WbYKYW] | 60 nM |  | 1000 nM
12 | WAKYW [Ala point mutation of WYKYW] | 5760 nM |  | 
13 | β^3-homo-Trp-Tyr-Lys-Tyr-Trp [bWYKYW] | 4.3 nM |  | 2100 nM
